According to PubChem BioAssay AID2060884 (Molecular Pharmacology Branch, DTP, NCI, 2025):

System: NCI-H929 complex spheroids, viability % test/control
Test: Anticancer human tumor NCI-H929 cell line growth inhibition [RAS];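 also: compound exposure lasted seven days before viability was read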;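 as to viability, T/C: 100% = DMSO vehicle control viability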
Details: for viability, T/C: stronger effect = lower value
Summary of the method: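 Multi-cell-type spheroids: tumor cells plus HUVEC endothelial cells and mesenchymal stem cells. RAS-pathway inhibitors were combined with targeted agents, each dosed in half-log steps down from clinical Cmax, or from 10 microM when Cmax was unknown.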

CCn1c(-c2cc(N3CCN(C)CC3)cnc2C(C)OC)c2c3cc(ccc31)-c1csc(n1)CC(NC(=O)C1CC1C)C(=O)N1CCCC(N1)C(=O)OCC(C)(C)C2 (centres undefined)
viability, T/C (compound 0.000949 µM): 102% [middle of 8 runs]
viability, T/C (compound 0.003 µM): 101% [middle of 8 runs]
viability, T/C (compound 0.00949 µM): 116% [middle of 8 runs]
viability, T/C (compound 0.0949 µM): 5.7% [middle of 8 runs]
viability, T/C (compound 0.3 µM): 3.64% [middle of 8 runs]
IC50 (compound alone, run of 08/26/2024): 31.5 nM [middle of 8 runs]

NC1c2ccccc2OC12CCN(c1cnc3c(N4CCCc5ncccc54)n[nH]c3n1)CC2 (centres undefined) + C=CC(=O)N1CCN(c2nc(OCC3CCCN3C)nc3c(F)c(-c4nc(N)cc(C)c4C(F)(F)F)c(Cl)cc23)C(C)C1
IC50 (curve of first compound, second compound 0.00316 µM): > 10000 nM
IC50 (curve of first compound, second compound 0.01 µM): > 10000 nM
IC50 (curve of first compound, second compound 0.0316 µM): > 10000 nM
IC50 (curve of first compound, second compound 0.1 µM): > 10000 nM
IC50 (curve of first compound, second compound 0.316 µM): > 10000 nM
IC50 (curve of first compound, second compound 1 µM): > 10000 nM
viability, T/C (second compound 0.00316 µM, first compound 0.0316 µM): 98.8%
viability, T/C (second compound 0.00316 µM, first compound 0.1 µM): 94.8%
viability, T/C (second compound 0.00316 µM, first compound 0.316 µM): 99.3%
viability, T/C (second compound 0.00316 µM, first compound 1 µM): 98.9%
viability, T/C (second compound 0.00316 µM, first compound 3.16 µM): 101%
viability, T/C (second compound 0.00316 µM, first compound 10 µM): 66.2%
viability, T/C (second compound 0.01 µM, first compound 0.0316 µM): 96.2%
viability, T/C (second compound 0.01 µM, first compound 0.1 µM): 90.6%
viability, T/C (second compound 0.01 µM, first compound 0.316 µM): 96%
viability, T/C (second compound 0.01 µM, first compound 1 µM): 103%
viability, T/C (second compound 0.01 µM, first compound 3.16 µM): 99%
viability, T/C (second compound 0.01 µM, first compound 10 µM): 66.8%
viability, T/C (second compound 0.0316 µM, first compound 0.0316 µM): 96.9%
viability, T/C (second compound 0.0316 µM, first compound 0.1 µM): 99.7%
viability, T/C (second compound 0.0316 µM, first compound 0.316 µM): 101%
viability, T/C (second compound 0.0316 µM, first compound 1 µM): 99.8%
viability, T/C (second compound 0.0316 µM, first compound 3.16 µM): 96.6%
viability, T/C (second compound 0.0316 µM, first compound 10 µM): 63.5%
viability, T/C (second compound 0.1 µM, first compound 0.0316 µM): 92.4%
viability, T/C (second compound 0.1 µM, first compound 0.1 µM): 99%
viability, T/C (second compound 0.1 µM, first compound 0.316 µM): 102%
viability, T/C (second compound 0.1 µM, first compound 1 µM): 97.4%
viability, T/C (second compound 0.1 µM, first compound 3.16 µM): 97.5%
viability, T/C (second compound 0.1 µM, first compound 10 µM): 69.3%
viability, T/C (second compound 0.316 µM, first compound 0.0316 µM): 101%
viability, T/C (second compound 0.316 µM, first compound 0.1 µM): 103%
viability, T/C (second compound 0.316 µM, first compound 0.316 µM): 105%
viability, T/C (second compound 0.316 µM, first compound 1 µM): 103%
viability, T/C (second compound 0.316 µM, first compound 3.16 µM): 102%
viability, T/C (second compound 0.316 µM, first compound 10 µM): 71.7%
viability, T/C (second compound 1 µM, first compound 0.0316 µM): 104%
viability, T/C (second compound 1 µM, first compound 0.1 µM): 107%
viability, T/C (second compound 1 µM, first compound 0.316 µM): 103%
viability, T/C (second compound 1 µM, first compound 1 µM): 102%
viability, T/C (second compound 1 µM, first compound 3.16 µM): 105%
viability, T/C (second compound 1 µM, first compound 10 µM): 68.9%

CC1(C)CCC(Nc2ncc(C(F)(F)F)c(-c3c[nH]c4c(P(C)(C)=O)c(C#N)ccc34)n2)CN1 (centres undefined)
viability, T/C (compound 0.00949 µM): 14.5% [middle of 4 runs]
viability, T/C (compound 0.03 µM): 8.74% [middle of 4 runs]
viability, T/C (compound 0.0949 µM): 9.57% [middle of 4 runs]
viability, T/C (compound 0.3 µM): 5.41% [middle of 4 runs]

CCc1c2c(nc3ccc(O)cc13)-c1cc3c(c(=O)n1C2)COC(=O)[C@]3(O)CC + CCn1c(-c2cc(N3CCN(C)CC3)cnc2C(C)OC)c2c3cc(ccc31)-c1csc(n1)CC(NC(=O)C1CC1C)C(=O)N1CCCC(N1)C(=O)OCC(C)(C)C2
IC50 (curve of first compound, second compound 0.000949 µM): 1.88 nM
IC50 (curve of first compound, second compound 0.003 µM): 2.18 nM
IC50 (curve of first compound, second compound 0.00949 µM): 2 nM
IC50 (curve of first compound, second compound 0.03 µM): < 0.949 nM
IC50 (curve of first compound, second compound 0.0949 µM): < 0.949 nM
IC50 (curve of first compound, second compound 0.3 µM): < 0.949 nM
viability, T/C (second compound 0.000949 µM, first compound 0.000949 µM): 108%
viability, T/C (second compound 0.000949 µM, first compound 0.003 µM): 10.3%
viability, T/C (second compound 0.000949 µM, first compound 0.00949 µM): 1.4%
viability, T/C (second compound 0.000949 µM, first compound 0.03 µM): 2.14%
viability, T/C (second compound 0.000949 µM, first compound 0.0949 µM): 0.7%
viability, T/C (second compound 0.000949 µM, first compound 0.3 µM): 0.99%
viability, T/C (second compound 0.003 µM, first compound 0.000949 µM): 103%
viability, T/C (second compound 0.003 µM, first compound 0.003 µM): 29.6%
viability, T/C (second compound 0.003 µM, first compound 0.00949 µM): 1.69%
viability, T/C (second compound 0.003 µM, first compound 0.03 µM): 1.32%
viability, T/C (second compound 0.003 µM, first compound 0.0949 µM): 1.58%
viability, T/C (second compound 0.003 µM, first compound 0.3 µM): 1.28%
viability, T/C (second compound 0.00949 µM, first compound 0.000949 µM): 114%
viability, T/C (second compound 0.00949 µM, first compound 0.003 µM): 15.1%
viability, T/C (second compound 0.00949 µM, first compound 0.00949 µM): 1.72%
viability, T/C (second compound 0.00949 µM, first compound 0.03 µM): 1.61%
viability, T/C (second compound 0.00949 µM, first compound 0.0949 µM): 1.9%
viability, T/C (second compound 0.00949 µM, first compound 0.3 µM): 0.54%
viability, T/C (second compound 0.03 µM, first compound 0.000949 µM): 19.6%
viability, T/C (second compound 0.03 µM, first compound 0.003 µM): 2.7%
viability, T/C (second compound 0.03 µM, first compound 0.00949 µM): 1.2%
viability, T/C (second compound 0.03 µM, first compound 0.03 µM): 1.06%
viability, T/C (second compound 0.03 µM, first compound 0.0949 µM): 1.1%
viability, T/C (second compound 0.03 µM, first compound 0.3 µM): 0.6%
viability, T/C (second compound 0.0949 µM, first compound 0.000949 µM): 4.5%
viability, T/C (second compound 0.0949 µM, first compound 0.003 µM): 1.29%
viability, T/C (second compound 0.0949 µM, first compound 0.00949 µM): 1.45%
viability, T/C (second compound 0.0949 µM, first compound 0.03 µM): 0.94%
viability, T/C (second compound 0.0949 µM, first compound 0.0949 µM): 1.04%
viability, T/C (second compound 0.0949 µM, first compound 0.3 µM): 0.39%
viability, T/C (second compound 0.3 µM, first compound 0.000949 µM): 2.56%
viability, T/C (second compound 0.3 µM, first compound 0.003 µM): 1.55%
viability, T/C (second compound 0.3 µM, first compound 0.00949 µM): 0.57%
viability, T/C (second compound 0.3 µM, first compound 0.03 µM): 0.84%
viability, T/C (second compound 0.3 µM, first compound 0.0949 µM): 1.38%
viability, T/C (second compound 0.3 µM, first compound 0.3 µM): 0.4%
